Data taken from patent publication US20140155376A1, “PYRROLOPYRAZINE KINASE INHIBITORS” (Hoffmann-La Roche Inc., priority 2010, published 2014).

Target: T1, JAK3 (recombinant human kinase domain; h-jak3(810-1124)) (Homo sapiens, UniProt P52333)
T1 construct: h-jak3(810- 1124)-sf9-c; made in house; host or cells: Sf9 insect cells
Assay: Determination of IC50 of Janus Kinase (JAK) inhibition: JAK3, radioactive end-point assay with 33P-ATP
Assay type: biochemical
Conditions: JAK3 kinase domain; ATP 1.5 uM, peptide 50 uM, 20 minutes, room temperature, 10% DMSO; read-out: Ic50 h-jak3(810-1124)-sf9-c:no additive

T1 sequence (P52333 810-1124): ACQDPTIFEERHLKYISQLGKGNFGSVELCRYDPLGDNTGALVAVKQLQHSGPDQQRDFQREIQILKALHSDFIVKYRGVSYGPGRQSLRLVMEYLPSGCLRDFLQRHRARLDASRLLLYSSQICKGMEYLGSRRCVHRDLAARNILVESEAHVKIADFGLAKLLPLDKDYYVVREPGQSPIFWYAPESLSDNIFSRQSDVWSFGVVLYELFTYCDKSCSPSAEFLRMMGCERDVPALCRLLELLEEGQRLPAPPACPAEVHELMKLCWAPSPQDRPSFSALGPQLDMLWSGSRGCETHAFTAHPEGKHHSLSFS

| Compound | IC50 |
| --- | --- |
| C[C@H](NC(=O)c1c[nH]c2ncc(Oc3ccc(F)cc3F)nc12)C(C)(C)O [Example I-125, 2-(2,4-Difluoro-phenoxy)-5H-pyrrolo[2,3-b]pyrazine-7-carboxylic acid ((S)-2-hydroxy-1,2-dimethyl-propyl)-amide] | 502 nM |
| CC(C)(O)C(NC(=O)c1c[nH]c2ncc(C3CC3)nc12)C(F)(F)F (stereo not drawn) [Example I-93, 2-Cyclopropyl-5H-pyrrolo[2,3-b]pyrazine-7-carboxylic acid (2-hydroxy-2-methyl-1-trifluoromethyl-propyl)-amide] | 57.8 nM |
| CC(C)NC(=O)c1c[nH]c2ncc(Oc3ccc4ccn(C)c4c3)nc12 [Example I-276, 2-(1-Methyl-1H-indol-6-yloxy)-5H-pyrrolo[2,3-b]pyrazine-7-carboxylic acid isopropylamide] | 574 nM |
| C[C@@H](NC(=O)c1c[nH]c2ncc(Oc3ccc(F)cc3F)nc12)C1CCCCC1 [Example I-124, 2-(2,4-Difluoro-phenoxy)-5H-pyrrolo[2,3-b]pyrazine-7-carboxylic acid ((R)-1-cyclohexyl-ethyl)-amide] | 442 nM |
| C[C@@H](NC(=O)c1c[nH]c2ncc(-c3nccs3)nc12)C(C)(C)O [Example I-111, 2-Thiazol-2-yl-5H-pyrrolo[2,3-b]pyrazine-7-carboxylic acid ((R)-2-hydroxy-1,2-dimethyl-propyl)-amide] | 276 nM |
| CC(C)NC(=O)c1c[nH]c2ncc(Oc3ccc4c(c3)[C@@H](O)CC4)nc12 [Example I-304, 2-((S)-3-Hydroxy-indan-5-yloxy)-5H-pyrrolo[2,3-b]pyrazine-7-carboxylic acid isopropylamide] | 155 nM |
| CCNC(=O)c1c[nH]c2ncc(Oc3ccc4c(c3)[C@H](NS(C)(=O)=O)CC4)nc12 [Example I-270, 2-((R)-3-Methanesulfonylamino-indan-5-yloxy)-5H-pyrrolo[2,3-b]pyrazine-7-carboxylic acid ethylamide] | 740 nM |
| CS(=O)(=O)N1CCCC(CNC(=O)c2c[nH]c3ncc(C4CC4)nc23)C1 (stereo not drawn) [Example I-108, 2-Cyclopropyl-5H-pyrrolo[2,3-b]pyrazine-7-carboxylic acid (1-methanesulfonyl-piperidin-3-ylmethyl)-amide] | 163 nM |
| CCc1cnc2[nH]cc(C(=O)NCC(C)(C)CO)c2n1 [Example I-39, 2-Ethyl-5H-pyrrolo[2,3-b]pyrazine-7-carboxylic acid (3-hydroxy-2,2-dimethyl-propyl)-amide] | 302 nM |
| COC[C@H](NC(=O)c1c[nH]c2ncc(C3CC3)nc12)C(C)(C)C [Example I-64, 2-Cyclopropyl-5H-pyrrolo[2,3-b]pyrazine-7-carboxylic acid ((R)-1-methoxymethyl-2,2-dimethyl-propyl)-amide] | 35.1 nM |
| CC(C)NC(=O)c1c[nH]c2ncc(Oc3cccc(C(C)C)c3)nc12 [Example I-234, 2-(3-Isopropyl-phenoxy)-5H-pyrrolo[2,3-b]pyrazine-7-carboxylic acid isopropylamide] | 980 nM |
| CCNC(=O)c1c[nH]c2ncc(Oc3cccc(CC)c3)nc12 [Example I-249, 2-(3-Ethyl-phenoxy)-5H-pyrrolo[2,3-b]pyrazine-7-carboxylic acid ethylamide] | 1590 nM |
| C[C@@H](NC(=O)c1c[nH]c2ncc(C3=CCOCC3)nc12)C(C)(C)O [Example I-110, 2-(3,6-Dihydro-2H-pyran-4-yl)-5H-pyrrolo[2,3-b]pyrazine-7-carboxylic acid ((R)-2-hydroxy-1,2-dimethyl-propyl)-amide] | 45.4 nM |
| CC(=O)NC1Cc2ccc(Oc3cnc4[nH]cc(C(=O)NC(C)C)c4n3)cc2C1 (stereo not drawn) [Example I-300, 2-(2-Acetylamino-indan-5-yloxy)-5H-pyrrolo[2,3-b]pyrazine-7-carboxylic acid isopropylamide] | 199 nM |
| C[C@@H](NC(=O)c1c[nH]c2ncc(C3CC3)nc12)C1(O)CCCC1 [Example I-82, 2-Cyclopropyl-5H-pyrrolo[2,3-b]pyrazine-7-carboxylic acid [(R)-1-(1-hydroxy-cyclopentyl)-ethyl]-amide] | 15.2 nM |
| C[C@@H](NC(=O)c1c[nH]c2ncc(-c3ccccn3)nc12)C(C)(C)O [Example I-112, 2-Pyridin-2-yl-5H-pyrrolo[2,3-b]pyrazine-7-carboxylic acid ((R)-2-hydroxy-1,2-dimethyl-propyl)-amide] | 86.2 nM |
| CNC(=O)CNc1cnc2[nH]cc(C(=O)NCC(C)(C)CO)c2n1 [Example I-16] | 459 nM |
| CC(C)(CO)CNC(=O)c1c[nH]c2ncc(Br)nc12 [Example I-1, 2-Bromo-5H-pyrrolo[2,3-b]pyrazine-7-carboxylic acid (3-hydroxy-2,2-dimethyl-propyl)-amide] | 225 nM |
| CC(C)NC(=O)c1c[nH]c2ncc(Oc3ccc4c(c3)[C@H](NC(=O)C(C)(C)C)CC4)nc12 [Example I-285, 2-[(R)-3-(2,2-Dimethyl-propionylamino)-indan-5-yloxy]-5H-pyrrolo[2,3-b]pyrazine-7-carboxylic acid isopropylamide] | 234 nM |
| CC(C)NC(=O)c1c[nH]c2ncc(Oc3cccc(C(F)(F)F)c3)nc12 [Example I-235, 2-(3-Trifluoromethyl-phenoxy)-5H-pyrrolo[2,3-b]pyrazine-7-carboxylic acid isopropylamide] | 784 nM |
| COC[C@@H](NC(=O)c1c[nH]c2ncc(C3CC3)nc12)C(C)(C)C [Example I-65, 2-Cyclopropyl-5H-pyrrolo[2,3-b]pyrazine-7-carboxylic acid ((S)-1-methoxymethyl-2,2-dimethyl-propyl)-amide] | 262 nM |
| CC(C)NC(=O)c1c[nH]c2ncc(Oc3ccc(F)cc3F)nc12 [Example I-132, 2-(2,4-Difluoro-phenoxy)-5H-pyrrolo[2,3-b]pyrazine-7-carboxylic acid isopropylamide] | 415 nM |
| CC(C)C(C#N)NC(=O)c1c[nH]c2ncc(C3CC3)nc12 (stereo not drawn) [Example I-89, 2-Cyclopropyl-5H-pyrrolo[2,3-b]pyrazine-7-carboxylic acid (1-cyano-2-methyl-propyl)-amide] | 13.4 nM |
| CCC(NC(=O)c1c[nH]c2ncc(C3CC3)nc12)C1CCCCC1 (stereo not drawn) [Example I-75, 2-Cyclopropyl-5H-pyrrolo[2,3-b]pyrazine-7-carboxylic acid (1-cyclohexyl-propyl)-amide] | 68.7 nM |

The next compounds have a lower IC50 than those just listed; values first:

| IC50 | Compound |
| --- | --- |
| 0.35 nM | CC(C)NC(=O)c1ccc(-c2cnc3[nH]cc(C(=O)N[C@@H](C)C(C)(C)C)c3n2)s1 [Example I-156, 2-(5-Isopropyl-carbamoyl-thiophen-2-yl)-5H-pyrrolo[2,3-b]pyrazine-7-carboxylic acid ((S)-1,2,2-trimethyl-propyl)-amide] |
| 0.57 nM | C[C@H](NC(=O)c1c[nH]c2ncc(-c3ccc(C(=O)Nc4ccccc4)s3)nc12)C(C)(C)C [Example I-201, 2-(5-Phenylcarbamoyl-thiophen-2-yl)-5H-pyrrolo[2,3-b]pyrazine-7-carboxylic acid ((S)-1,2,2-trimethyl-propyl)-amide] |
| 2.46 nM | C[C@H](NC(=O)c1c[nH]c2ncc(-c3cn(-c4cc(Cl)ccc4F)cn3)nc12)C(C)(C)C [Example I-147, 2-[1-(5-Chloro-2-fluoro-phenyl)-1H-imidazol-4-yl]-5H-pyrrolo[2,3-b]pyrazine-7-carboxylic acid ((S)-1,2,2-trimethyl-propyl)-amide] |
| 11.1 nM | CC(C)(C)[C@H](CO)NC(=O)c1c[nH]c2ncc(C3CC3)nc12 [Example I-52, 2-Cyclopropyl-5H-pyrrolo[2,3-b]pyrazine-7-carboxylic acid ((R)-1-hydroxymethyl-2,2-dimethyl-propyl)-amide] |
| 0.19 nM | C[C@H](NC(=O)c1c[nH]c2ncc(-c3ccc(C(=O)NC4CCOCC4)s3)nc12)C(C)(C)C [Example I-225, 2-[5-(Tetrahydro-pyran-4-ylcarbamoyl)-thiophen-2-yl]-5H-pyrrolo[2,3-b]pyrazine-7-carboxylic acid ((S)-1,2,2-trimethyl-propyl)-amide] |
| 0.16 nM | C[C@H](NC(=O)c1c[nH]c2ncc(-c3ccc(C(=O)NC4CCS(=O)(=O)CC4)s3)nc12)C(C)(C)C [Example I-212, 2-[5-(1,1-Dioxo-hexahydro-1λ^6-thiopyran-4-ylcarbamoyl)-thiophen-2-yl]-5H-pyrrolo[2,3-b]pyrazine-7-carboxylic acid ((S)-1,2,2-trimethyl-propyl)-amide] |
| 0.19 nM | C[C@H](NC(=O)c1c[nH]c2ncc(-c3cnn(C)c3)nc12)C(C)(C)C [Example I-141, 2-(1-Methyl-1H-pyrazol-4-yl)-5H-pyrrolo[2,3-b]pyrazine-7-carboxylic acid ((S)-1,2,2-trimethyl-propyl)-amide] |
| 0.18 nM | C[C@H](NC(=O)c1c[nH]c2ncc(-c3ccc(C(=O)NCCC(F)(F)F)s3)nc12)C(C)(C)C [Example I-216, 2-[5-(3,3,3-Trifluoro-propylcarbamoyl)-thiophen-2-yl]-5H-pyrrolo[2,3-b]pyrazine-7-carboxylic acid ((S)-1,2,2-trimethyl-propyl)-amide] |
| 3.05 nM | C[C@H](NC(=O)c1c[nH]c2ncc(-c3cccs3)nc12)C(C)(C)O [Example I-18, 2-Thiophen-2-yl-5H-pyrrolo[2,3-b]pyrazine-7-carboxylic acid ((S)-2-hydroxy-1,2-dimethyl-propyl)-amide] |
| 9.99 nM | CC(NC(=O)c1c[nH]c2ncc(C3CC3)nc12)C1CCCC1 (stereo not drawn) [Example I-95, 2-Cyclopropyl-5H-pyrrolo[2,3-b]pyrazine-7-carboxylic acid (1-cyclopentyl-ethyl)-amide] |
| 0.73 nM | C[C@H](NC(=O)c1c[nH]c2ncc(-c3ccc(C(=O)Nc4ccc5c(c4)CCCC5)s3)nc12)C(C)(C)C [Example I-200, 2-[5-(5,6,7,8-Tetrahydro-naphthalen-2-ylcarbamoyl)-thiophen-2-yl]-5H-pyrrolo[2,3-b]pyrazine-7-carboxylic acid ((S)-1,2,2-trimethyl-propyl)-amide] |
| 9.03 nM | COC(C)(C)CNC(=O)c1c[nH]c2ncc(C3CC3)nc12 [Example I-50, 2-Cyclopropyl-5H-pyrrolo[2,3-b]pyrazine-7-carboxylic acid (2-methoxy-2-methyl-propyl)-amide] |
